These results are taken from ChEMBL document CHEMBL5247643, “Discovery and Characterization of BAY-805, a Potent and Selective Inhibitor of Ubiquitin-Specific Protease USP21” (J Med Chem, 2023).

Experiment [1] concerns the target Ubiquitin carboxyl-terminal hydrolase 7 (Homo sapiens) (UniProt Q93009). As to the kind of experiment: Inhibition of human USP7 using ubiquitin rhodamine 110 as substrate at 10 to 50 uM by fluorometric assay. Conditions: dose 10-50 µM.
Experiment [2] concerns the target T1, Ubiquitin carboxyl-terminal hydrolase 30 (Homo sapiens) (UniProt Q70CQ3).
T1 sequence (whole entry): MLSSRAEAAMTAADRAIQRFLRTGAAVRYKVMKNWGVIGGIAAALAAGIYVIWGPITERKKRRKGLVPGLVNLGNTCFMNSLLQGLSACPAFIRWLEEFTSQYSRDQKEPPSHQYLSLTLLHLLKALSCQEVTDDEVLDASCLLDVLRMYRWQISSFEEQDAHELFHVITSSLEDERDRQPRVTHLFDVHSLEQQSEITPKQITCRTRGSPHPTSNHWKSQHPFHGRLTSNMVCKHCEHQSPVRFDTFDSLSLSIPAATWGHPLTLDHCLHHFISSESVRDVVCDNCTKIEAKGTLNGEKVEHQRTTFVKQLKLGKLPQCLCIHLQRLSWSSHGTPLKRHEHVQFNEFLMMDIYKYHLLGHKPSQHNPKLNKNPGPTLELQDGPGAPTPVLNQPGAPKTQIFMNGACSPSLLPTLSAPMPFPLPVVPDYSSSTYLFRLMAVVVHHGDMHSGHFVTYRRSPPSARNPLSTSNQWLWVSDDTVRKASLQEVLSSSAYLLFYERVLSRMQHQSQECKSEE
The experiment in a line: Inhibition of human USP30 using ubiquitin rhodamine 110 as substrate at 10 to 50 uM by fluorometric assay. Conditions: dose 10-50 µM.

Experiment [3] deals with T2, Ubiquitin carboxyl-terminal hydrolase 2 (Homo sapiens) (UniProt O75604).
T2 sequence (whole entry): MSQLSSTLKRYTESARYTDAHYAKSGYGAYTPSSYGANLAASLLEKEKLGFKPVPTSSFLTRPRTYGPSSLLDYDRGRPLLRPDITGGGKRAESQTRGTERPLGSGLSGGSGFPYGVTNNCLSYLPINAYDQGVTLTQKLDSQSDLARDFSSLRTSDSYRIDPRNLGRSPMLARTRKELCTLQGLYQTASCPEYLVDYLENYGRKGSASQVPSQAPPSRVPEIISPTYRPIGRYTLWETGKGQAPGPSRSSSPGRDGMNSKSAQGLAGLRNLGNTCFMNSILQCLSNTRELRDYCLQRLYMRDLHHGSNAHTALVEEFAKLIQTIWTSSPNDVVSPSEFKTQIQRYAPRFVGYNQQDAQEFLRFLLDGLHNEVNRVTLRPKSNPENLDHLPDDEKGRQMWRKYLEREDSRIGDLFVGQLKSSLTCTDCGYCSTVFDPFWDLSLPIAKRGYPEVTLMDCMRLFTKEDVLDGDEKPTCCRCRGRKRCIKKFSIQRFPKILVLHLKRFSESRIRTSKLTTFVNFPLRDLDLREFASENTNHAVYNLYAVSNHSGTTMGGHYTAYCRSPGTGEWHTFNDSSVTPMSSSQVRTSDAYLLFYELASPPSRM
As to the kind of experiment: Inhibition of human USP2 using ubiquitin rhodamine 110 as substrate at 10 to 50 uM by fluorometric assay. Particulars: dose 10-50 µM.

Experiment [4] has as its target T3, Ubiquitin carboxyl-terminal hydrolase 5 (Homo sapiens) (UniProt P45974).
T3 sequence (whole entry): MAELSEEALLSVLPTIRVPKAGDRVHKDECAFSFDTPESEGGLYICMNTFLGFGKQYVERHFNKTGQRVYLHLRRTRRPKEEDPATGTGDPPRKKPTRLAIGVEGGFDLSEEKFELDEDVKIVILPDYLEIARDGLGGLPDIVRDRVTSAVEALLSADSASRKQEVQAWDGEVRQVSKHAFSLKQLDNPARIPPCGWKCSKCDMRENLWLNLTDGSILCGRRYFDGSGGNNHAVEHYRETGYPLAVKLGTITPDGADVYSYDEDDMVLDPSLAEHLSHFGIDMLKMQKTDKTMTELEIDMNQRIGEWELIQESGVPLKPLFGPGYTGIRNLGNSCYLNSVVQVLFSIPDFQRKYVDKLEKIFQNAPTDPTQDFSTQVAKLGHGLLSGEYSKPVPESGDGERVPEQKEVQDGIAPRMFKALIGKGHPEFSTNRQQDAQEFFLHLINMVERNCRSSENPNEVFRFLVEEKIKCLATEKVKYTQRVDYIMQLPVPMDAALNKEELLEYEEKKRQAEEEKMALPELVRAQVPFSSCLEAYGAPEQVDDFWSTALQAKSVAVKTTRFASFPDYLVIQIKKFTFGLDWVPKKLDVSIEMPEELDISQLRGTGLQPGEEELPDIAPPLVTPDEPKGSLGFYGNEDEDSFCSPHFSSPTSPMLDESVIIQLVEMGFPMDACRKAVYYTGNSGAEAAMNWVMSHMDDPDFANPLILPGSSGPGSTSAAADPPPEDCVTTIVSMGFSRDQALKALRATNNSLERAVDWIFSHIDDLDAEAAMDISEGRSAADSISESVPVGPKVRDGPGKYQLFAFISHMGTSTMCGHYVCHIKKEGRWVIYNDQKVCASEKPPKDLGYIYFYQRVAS
As to the kind of experiment: Inhibition of human USP5 using ubiquitin rhodamine 110 as substrate at 10 to 50 uM by fluorometric assay. Particulars: dose 10-50 µM.

The subject of a further experiment is A549. The experiment in a line: Antiproliferative activity against human A549 cells assessed as reduction in cell viability up to 30 uM incubated for 72 hrs by CellTiter-Glo luminescent assay. The experiment is classed as functional, cell-based. A general note: Cellular ATP, detected with luciferase, serves as a proxy for viable cell number.
Experiment [5] addresses T3, Ubiquitin carboxyl-terminal hydrolase 5 (Homo sapiens). As to the kind of experiment: Inhibition of human USP5 (1 to 835 residues) expressed in Sf9 cells using ubiquitin rhodamine 110 as substrate assessed as remaining enzyme activity at 10 to 50 uM by fluorometric assay. Particulars: dose 10-50 µM.
Experiment [6] addresses T4, Ubiquitin carboxyl-terminal hydrolase 22 (Homo sapiens) (UniProt Q9UPT9).
T4 sequence (whole entry): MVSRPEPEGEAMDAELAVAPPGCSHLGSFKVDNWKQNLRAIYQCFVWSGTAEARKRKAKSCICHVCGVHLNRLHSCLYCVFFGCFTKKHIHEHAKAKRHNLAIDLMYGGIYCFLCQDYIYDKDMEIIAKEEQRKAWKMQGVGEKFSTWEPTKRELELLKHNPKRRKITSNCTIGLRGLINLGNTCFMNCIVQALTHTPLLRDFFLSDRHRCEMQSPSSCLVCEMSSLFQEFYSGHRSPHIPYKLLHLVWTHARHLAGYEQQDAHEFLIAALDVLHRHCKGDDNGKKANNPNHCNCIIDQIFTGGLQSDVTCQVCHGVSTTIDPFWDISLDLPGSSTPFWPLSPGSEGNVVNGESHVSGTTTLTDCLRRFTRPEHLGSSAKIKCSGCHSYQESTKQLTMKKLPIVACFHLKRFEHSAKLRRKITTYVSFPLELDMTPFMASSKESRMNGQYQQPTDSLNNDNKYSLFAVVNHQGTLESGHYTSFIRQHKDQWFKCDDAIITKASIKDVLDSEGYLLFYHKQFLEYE
The experiment in a line: Inhibition of human USP22 (1 to 525 residues) expressed in Sf9 cells using ubiquitin rhodamine 110 as substrate assessed as remaining enzyme activity at 10 to 50 uM by fluorometric assay. Conditions: dose 10-50 µM.

The target in experiment [7] is Ubiquitin carboxyl-terminal hydrolase 7 (Homo sapiens) (UniProt Q93009). The experiment in a line: Inhibition of human USP7 (1 to 1102 residues) expressed in Sf9 cells using ubiquitin rhodamine 110 as substrate assessed as remaining enzyme activity at 10 to 50 uM by fluorometric assay. Conditions: dose 10-50 µM.
Ubiquitin carboxyl-terminal hydrolase 7 (Homo sapiens), sequence (Q93009 whole entry, looked up, the tested form may be a part): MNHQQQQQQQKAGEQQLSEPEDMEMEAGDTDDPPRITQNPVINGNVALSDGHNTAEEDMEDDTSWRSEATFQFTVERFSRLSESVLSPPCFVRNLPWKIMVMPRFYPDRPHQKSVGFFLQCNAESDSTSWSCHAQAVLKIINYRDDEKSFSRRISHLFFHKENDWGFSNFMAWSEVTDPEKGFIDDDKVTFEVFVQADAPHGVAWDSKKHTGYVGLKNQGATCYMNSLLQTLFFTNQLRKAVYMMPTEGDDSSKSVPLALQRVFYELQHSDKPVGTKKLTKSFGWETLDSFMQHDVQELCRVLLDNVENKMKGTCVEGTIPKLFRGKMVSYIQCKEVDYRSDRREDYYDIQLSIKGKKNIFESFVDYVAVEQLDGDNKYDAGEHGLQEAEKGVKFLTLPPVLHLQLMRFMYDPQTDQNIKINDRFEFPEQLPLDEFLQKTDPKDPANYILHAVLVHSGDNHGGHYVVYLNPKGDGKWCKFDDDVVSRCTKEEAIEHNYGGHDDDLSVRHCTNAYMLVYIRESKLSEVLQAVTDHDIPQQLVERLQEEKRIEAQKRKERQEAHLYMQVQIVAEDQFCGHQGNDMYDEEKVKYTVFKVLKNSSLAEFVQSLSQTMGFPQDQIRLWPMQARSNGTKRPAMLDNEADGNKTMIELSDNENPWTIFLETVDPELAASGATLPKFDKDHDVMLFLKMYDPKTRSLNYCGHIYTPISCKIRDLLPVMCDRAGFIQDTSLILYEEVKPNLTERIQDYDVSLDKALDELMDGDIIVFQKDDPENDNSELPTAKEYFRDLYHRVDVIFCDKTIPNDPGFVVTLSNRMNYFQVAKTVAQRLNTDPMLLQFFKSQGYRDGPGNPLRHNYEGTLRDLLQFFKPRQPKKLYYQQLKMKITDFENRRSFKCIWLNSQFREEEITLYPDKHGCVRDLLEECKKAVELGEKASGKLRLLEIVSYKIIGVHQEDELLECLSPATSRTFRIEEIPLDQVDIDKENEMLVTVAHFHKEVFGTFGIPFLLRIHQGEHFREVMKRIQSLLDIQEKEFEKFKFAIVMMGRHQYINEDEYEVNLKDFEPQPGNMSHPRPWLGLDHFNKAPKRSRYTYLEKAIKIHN

The source made the active and inactive calls. No cut-off for these calls is given here.

In the case of `CC(C)C[C@H](NC(=O)C1(C(F)(F)F)CCCCC1)C(=O)Nc1nnc(Cc2ccc(C#N)cc2)s1`, the inhibition result in experiment [1], in experiment [2], in experiment [3] and in experiment [4] was “inactive” throughout. Further, the outcome in the experiment with A549 was inactive.

`CC(NC(=O)C1CCCC1)C(=O)Nc1nnc(Cc2ccc([N+](=O)[O-])cc2)s1` (racemic): the Activity in experiment [5], in experiment [6] and in experiment [7] was < 50% each time.
